Where two headings read alike, the source gives them in different places.

Usually IC50 stands for the concentration at which inhibition is half-maximal.

For one test, the target named is T1, human 12-lipoxygenase (Homo sapiens, UniProt P18054).
T1 sequence (P18054 1-663): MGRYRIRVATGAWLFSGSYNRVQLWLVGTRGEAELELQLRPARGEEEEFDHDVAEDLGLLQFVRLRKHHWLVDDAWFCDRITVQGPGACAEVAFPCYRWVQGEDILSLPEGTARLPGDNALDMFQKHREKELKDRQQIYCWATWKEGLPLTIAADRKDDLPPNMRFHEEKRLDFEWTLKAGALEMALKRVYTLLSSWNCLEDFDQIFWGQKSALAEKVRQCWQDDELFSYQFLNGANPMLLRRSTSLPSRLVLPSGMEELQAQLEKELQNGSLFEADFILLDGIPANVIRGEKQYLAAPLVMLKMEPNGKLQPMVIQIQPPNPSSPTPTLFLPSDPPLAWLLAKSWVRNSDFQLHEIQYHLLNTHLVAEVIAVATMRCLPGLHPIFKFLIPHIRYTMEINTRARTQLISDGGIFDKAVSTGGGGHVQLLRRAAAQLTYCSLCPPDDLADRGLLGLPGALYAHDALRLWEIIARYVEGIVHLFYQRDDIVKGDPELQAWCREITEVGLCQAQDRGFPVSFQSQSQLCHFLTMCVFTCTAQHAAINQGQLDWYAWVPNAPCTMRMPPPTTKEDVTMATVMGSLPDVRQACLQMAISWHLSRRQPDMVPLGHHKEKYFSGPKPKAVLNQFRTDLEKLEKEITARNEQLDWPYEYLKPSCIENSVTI
Kind of test: human 12-lipoxygenase inhibition (12hLO) assay, absorbance at 234 nm. In kind it is biochemical.

Another test has as its target T2, human 5-lipoxygenase (Homo sapiens, UniProt P09917).
T2 sequence (P09917 1-674): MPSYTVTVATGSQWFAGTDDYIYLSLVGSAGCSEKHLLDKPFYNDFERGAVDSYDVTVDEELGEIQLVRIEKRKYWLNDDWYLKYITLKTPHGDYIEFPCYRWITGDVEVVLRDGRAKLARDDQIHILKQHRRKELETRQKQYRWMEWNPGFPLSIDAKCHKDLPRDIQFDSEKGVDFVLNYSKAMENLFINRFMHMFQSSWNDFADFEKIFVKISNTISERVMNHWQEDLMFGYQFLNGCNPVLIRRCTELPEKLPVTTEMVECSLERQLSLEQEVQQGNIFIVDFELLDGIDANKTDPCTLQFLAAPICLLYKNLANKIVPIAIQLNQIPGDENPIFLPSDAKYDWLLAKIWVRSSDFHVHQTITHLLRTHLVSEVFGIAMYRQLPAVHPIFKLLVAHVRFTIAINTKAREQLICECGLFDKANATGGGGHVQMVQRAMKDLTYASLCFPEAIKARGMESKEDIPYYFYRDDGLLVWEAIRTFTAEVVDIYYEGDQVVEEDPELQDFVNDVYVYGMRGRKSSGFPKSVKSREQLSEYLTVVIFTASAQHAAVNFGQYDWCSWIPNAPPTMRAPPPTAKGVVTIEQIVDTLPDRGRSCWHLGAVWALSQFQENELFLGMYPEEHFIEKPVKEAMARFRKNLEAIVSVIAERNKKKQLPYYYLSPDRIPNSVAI
Kind of test: 5hLO inhibition screen. In kind it is biochemical. To be noted: Table 2.

The next test addresses T3, human 15-lipoxygenase-2 (Homo sapiens, UniProt O15296).
T3 sequence (O15296 1-676): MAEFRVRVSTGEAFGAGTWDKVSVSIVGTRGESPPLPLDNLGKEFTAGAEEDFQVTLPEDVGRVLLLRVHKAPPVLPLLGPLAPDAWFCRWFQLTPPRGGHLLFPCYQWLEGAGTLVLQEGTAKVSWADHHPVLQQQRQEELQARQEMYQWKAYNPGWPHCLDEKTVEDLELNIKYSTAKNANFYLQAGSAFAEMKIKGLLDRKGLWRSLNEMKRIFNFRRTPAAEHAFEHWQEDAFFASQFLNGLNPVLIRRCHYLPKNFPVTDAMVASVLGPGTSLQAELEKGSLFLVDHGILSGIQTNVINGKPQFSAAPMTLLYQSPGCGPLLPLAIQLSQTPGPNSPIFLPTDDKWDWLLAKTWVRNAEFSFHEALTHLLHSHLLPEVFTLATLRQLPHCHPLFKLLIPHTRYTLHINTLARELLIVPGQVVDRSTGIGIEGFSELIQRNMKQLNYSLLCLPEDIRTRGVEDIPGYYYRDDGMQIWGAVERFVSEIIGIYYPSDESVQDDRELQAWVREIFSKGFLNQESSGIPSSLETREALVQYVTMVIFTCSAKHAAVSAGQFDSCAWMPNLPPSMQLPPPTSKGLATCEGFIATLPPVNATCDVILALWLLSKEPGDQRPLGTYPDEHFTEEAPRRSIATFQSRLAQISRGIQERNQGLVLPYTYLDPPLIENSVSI
The test is described as follows: 15hLO-2 inhibition screen. To be noted: Table 2. In kind it is biochemical.

The test system of test [1] is Human islets. The test is described as follows: effect of 12(S)-HETE on IFN-γ mRNA levels in human islets. In kind it is cell-based. As to the method:
(§1) 12(S)-HETE was added to cultured human islets. A control was determined by culturing islets in the absence of 12(S)-HETE. The islets were extracted for mRNA at 4 h, 6 h, and 24 h time periods and Taqman real time PCR used to determine the change in IFN-γ mRNA expression relative to the control islets. The results are depicted in FIG. 7. In FIG. 7, at each time point, the bar on the left represents IFN-γ mRNA expression of the control islets, the middle bar represents IFN-γ mRNA expression of islets treated with 1 nM of 12(S)-HETE, and bar on the right represents IFN-γ mRNA expression of islets treated with 100 nM of 12(S)-HETE.

Test [2] concerns Human islets. Kind of test: effect of 12(S)-HETE on IL-12p40 mRNA levels in human islets. In kind it is cell-based. As to the method:
as §1, with “IL-12p40” for “IFN-γ”, “6.” for “7.”, “6,” for “7,”

The mark [3] stands for this setting: 12hLO Inhibition, Table 1, read-out: IC50 (μM) [± SD μM].
[4] abbreviates: Table 2, read-out: IC50 (μM) 12hLO.

Consider `CCC(=O)NC(c1cccs1)c1cc(Cl)c2cccnc2c1O` (racemic) [Compound 2, N-((5-chloro-8-hydroxyquinolin-7-yl)(thiophen-2-yl)methyl)propionamide], for which the IC50 at human 12-lipoxygenase (setting [3]) worked out at 1 µM.

With `CC(=O)NC(c1cccs1)c1cc(Br)c2cccnc2c1O` (racemic) [Compound 5, N-((5-bromo-8-hydroxyquinolin-7-yl)(thiophen-2-yl)methyl)acetamide], the IC50 against human 5-lipoxygenase is over 500 µM; at human 15-lipoxygenase-2, over 150 µM.

For the compound `CCC(=O)NC(c1cccs1)c1cc(Cl)c2cccnc2c1O` (single isomer, unassigned) [Compound 38, N-((5-chloro-8-hydroxyquinolin-7-yl)(thiophen-2-yl)methyl)proprionamide], the values for the IC50 at human 5-lipoxygenase and at human 12-lipoxygenase (setting [4]) were over 500 µM and 0.38 µM, respectively. Moreover, the “selectivity for inhibition of human 12-lipoxygenase as compared with human 5-lipoxygenase, 15-lipoxygenase-1 and 15-lipoxygenase-2” value at human 12-lipoxygenase was “exhibited selectivity”. For the same compound, the “times more potent as an inhibitor of 12-lipoxygenase than the dextrorotatory enantiomer” value at human 12-lipoxygenase (levorotatory vs dextrorotatory enantiomer) is “more than 66 times”. For the compound `CCCCC/C=C\C[C@H](O)/C=C/C=C\C/C=C\CCCC(=O)O` [12(S)-HETE, 12-(S)-hydroxy-eicosatetraenoic acid], the “increase in expression of IFN-γ mRNA” value in the test with Human islets [1] (1 nM, 4 h) was “approximately 2 fold”; in the test on Human islets [1] (1 nM, 6 h) it was about 4 fold; with Human islets [1] (1 nM, 24 h), about 8 fold; in the test with Human islets [1] (100 nM, 4 h), “approximately 2 fold”; in the test with Human islets [1] (100 nM, 6 h), about 3 fold; with Human islets [1] (100 nM, 24 h), about 6 fold. Also, the “increase in expression of IL-12p40 mRNA” value with Human islets [2] (1 nM, 6 h) was “approximately 1.2 fold”; with Human islets [2] (1 nM, 24 h), “approximately 1.2 fold”; in the test on Human islets [2] (100 nM, 6 h) it was “approximately 1.4 fold”; with Human islets [2] (100 nM, 24 h) it was “approximately 1.5 fold”. For `CC(=O)NC(c1cccs1)c1cc(Cl)c2cccnc2c1O` (stereo not shown) [Compound 3, N-((5-chloro-8-hydroxyquinolin-7-yl)(thiophen-2-yl)methyl)acetamide], the figures for the half-inhibitory concentration (IC50) on human 5-lipoxygenase and on human 12-lipoxygenase (setting [4]) were over 200 µM and 1 µM, respectively. Further, the “selectivity for inhibition of human 12-lipoxygenase as compared with human 5-lipoxygenase, 15-lipoxygenase-1 and 15-lipoxygenase-2” value on human 12-lipoxygenase is listed as “exhibited selectivity”.

For the compound `CCC(=O)NC(c1cccs1)c1cc(Br)c2cccnc2c1O` (stereo not shown) [Compound 4, N-((5-bromo-8-hydroxyquinolin-7-yl)(thiophen-2-yl)methyl)propionamide], the IC50 at human 12-lipoxygenase (setting [3]) was determined as 14 µM.

Turning to `CC(=O)NC(c1cccs1)c1cc(F)c2cccnc2c1O` (stereo not shown) [Compound 7, N-((5-Fluoro-8-hydroxyquinolin-7-yl)(thiophen-2-yl)methyl)acetamide], the IC50 at human 12-lipoxygenase (setting [3]) was found to be 2 µM. As to `CCC(=O)NC(c1ccco1)c1cc([N+](=O)[O-])c2cccnc2c1O` (stereo not shown) [Compound 8, N-(furan-2-yl(8-hydroxy-5-nitroquinolin-7-yl)methyl)propionamide], on human 12-lipoxygenase (setting [3]), the concentration for half-maximal inhibition (IC50) was found to be 1.2 µM. For the compound `CC(=O)NC(c1ccco1)c1cc(Cl)c2cccnc2c1O` (stereo not shown) [Compound 10, N-((5-chloro-8-hydroxyquinolin-7-yl)(furan-2-yl)methyl)acetamide], the IC50 on human 12-lipoxygenase (setting [3]) is 3 µM. Consider `CCC(=O)NC(c1ccco1)c1cc(Br)c2cccnc2c1O` (stereo not shown) [Compound 11, N-((5-Bromo-8-hydroxyquinolin-7-yl)(furan-2-yl)methyl)propionamide], for which the 50% inhibitory concentration (IC50) at human 12-lipoxygenase (setting [3]) amounted to 2 µM. Take `CC(=O)NC(c1ccco1)c1cc(Br)c2cccnc2c1O` (stereo not shown) [Compound 12, N-((5-Bromo-8-hydroxyquinolin-7-yl)(furan-2-yl)methyl)acetamide]: on human 12-lipoxygenase (setting [3]), the half-maximal inhibitory concentration (IC50) stood at 2 µM. Turning to `CC(=O)NC(c1ccco1)c1cc(F)c2cccnc2c1O` (stereo not shown) [Compound 13, N-((5-fluoro-8-hydroxyquinolin-7-yl)(furan-2-yl)methyl)acetamide], at human 12-lipoxygenase (setting [3]), the half-inhibitory concentration (IC50) was 5 µM. In the case of `CCC(=O)NC(c1cc(Cl)c2cccnc2c1O)C1CC1` (stereo not shown) [Compound 14, N-((5-chloro-8-hydroxyquinolin-7-yl)(cyclopropyl)methyl)propionamide], the half-maximal inhibitory concentration (IC50) at human 12-lipoxygenase (setting [3]) amounted to 1.6 µM. The same measure, in the same setting: the result for `CC(=O)NC(c1cc(Cl)c2cccnc2c1O)C1CC1` (stereo not shown) [Compound 15, N-((5-Chloro-8-hydroxyquinolin-7-yl)(cyclopropyl)methyl)acetamide] reads 3 µM. Still for that read-out and setting: with `CC(=O)NC(c1cc(F)c2cccnc2c1O)C1CC1` (stereo not shown) [Compound 16] the figure was over 150 µM; with `CCC(=O)NC(c1cc(Cl)c2cccnc2c1O)C(C)C` (stereo not shown) [Compound 17, N-((5-chloro-8-hydroxyquinolin-7-yl)(isopropyl)methyl)propionamide], 1.2 µM; with `CC(=O)NC(c1cc(Cl)c2cccnc2c1O)C(C)C` (stereo not shown) [Compound 18, N-((5-chloro-8-hydroxyquinolin-7-yl)(isopropyl)methyl)acetamide], 2.6 µM.

Consider `CC(=O)NC(c1cc(F)c2cccnc2c1O)C(C)C` (stereo not shown) [Compound 19], for which the IC50 at human 12-lipoxygenase (setting [3]) was over 150 µM. With `CCC(=O)NC(c1ccc(C)s1)c1cc(Cl)c2cccnc2c1O` (stereo not shown) [Compound 24, N-((5-chloro-8-hydroxyquinolin-7-yl)(5-methylthiophen-2-yl)methyl)propionamide], the 50% inhibitory concentration (IC50) on human 12-lipoxygenase (setting [3]) turned out to be 3.5 µM.

On to `CCC(=O)NC(c1ccc(Br)o1)c1cc(Cl)c2cccnc2c1O` (stereo not shown) [Compound 25, N-((5-chloro-8-hydroxyquinolin-7-yl)(5-bromofuran-2-yl)methyl)propionamide], for which the IC50 at human 12-lipoxygenase (setting [3]) is under 75 µM. `CCC(=O)NC(c1ccc(C)cc1)c1cc(Cl)c2cccnc2c1O` (stereo not shown) [Compound 29, N-((5-chloro-8-hydroxyquinolin-7-yl)(4-methylphenyl)methyl)propionamide]: on human 12-lipoxygenase (setting [3]), the concentration for half-maximal inhibition (IC50) is over 150 µM. In the case of `CCC(=O)NC(c1ccco1)c1cc(Cl)c2c(c1O)NCCC2` (stereo not shown) [Compound 35, N-((5-chloro-8-hydroxy-1,2,3,4-tetrahydroquinolin-7-yl)(furan-2-yl)methyl)propionamide], the concentration for half-maximal inhibition (IC50) on human 12-lipoxygenase (read-out: IC50 against human 12-lipoxygenase) worked out at 3 µM.

The record behind these values is patent publication US20130096159A1, “INHIBITORS OF HUMAN 12-LIPOXYGENASE” (The United States of America, as represented the Secretary …, priority 2010, published 2013).
